Measured values taken from ChEMBL document CHEMBL5512657, “Design, synthesis and evaluation of a pyrazolo[3,4-d]pyrimidine derivative as a novel and potent TGFβ1R1 inhibitor” (Eur J Med Chem, 2024).
pEC50, pIC50: −log10 of the molar value.

Columns and labels:
TGF-beta receptor type-1 [1] = biological target: T1, TGF-beta receptor type-1 (Mus musculus, UniProt Q64729); test: Inhibition of ALK5 signaling in mouse NIH3T3 cells transfected with (CAGA)12-luciferase reporter incubated for 18 hrs in presence of TGF-beta1 by dual-luciferase reporter assay; type: cell-based
T1 sequence (Q64729 whole entry): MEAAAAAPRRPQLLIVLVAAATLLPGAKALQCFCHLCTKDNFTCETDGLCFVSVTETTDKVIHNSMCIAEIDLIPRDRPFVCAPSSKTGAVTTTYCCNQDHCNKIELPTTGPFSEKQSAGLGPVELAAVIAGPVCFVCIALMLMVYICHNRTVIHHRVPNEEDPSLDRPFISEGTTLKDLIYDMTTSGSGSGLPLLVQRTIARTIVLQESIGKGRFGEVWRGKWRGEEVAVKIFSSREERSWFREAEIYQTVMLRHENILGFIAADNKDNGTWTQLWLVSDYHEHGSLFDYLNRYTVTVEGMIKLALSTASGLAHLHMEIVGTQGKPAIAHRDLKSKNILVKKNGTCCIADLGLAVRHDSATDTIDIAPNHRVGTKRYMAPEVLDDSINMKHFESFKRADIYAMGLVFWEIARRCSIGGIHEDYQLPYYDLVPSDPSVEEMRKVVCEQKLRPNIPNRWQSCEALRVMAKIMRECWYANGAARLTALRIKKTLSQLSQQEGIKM

[2] = biological target: Voltage-gated inwardly rectifying potassium channel KCNH2 (Homo sapiens, UniProt Q12809); test: Inhibition of human ERG stably expressed in HEK293 cells by manual patch clamp method; type: toxicity, cell-based
Chain of Voltage-gated inwardly rectifying potassium channel KCNH2 (Q12809 whole entry): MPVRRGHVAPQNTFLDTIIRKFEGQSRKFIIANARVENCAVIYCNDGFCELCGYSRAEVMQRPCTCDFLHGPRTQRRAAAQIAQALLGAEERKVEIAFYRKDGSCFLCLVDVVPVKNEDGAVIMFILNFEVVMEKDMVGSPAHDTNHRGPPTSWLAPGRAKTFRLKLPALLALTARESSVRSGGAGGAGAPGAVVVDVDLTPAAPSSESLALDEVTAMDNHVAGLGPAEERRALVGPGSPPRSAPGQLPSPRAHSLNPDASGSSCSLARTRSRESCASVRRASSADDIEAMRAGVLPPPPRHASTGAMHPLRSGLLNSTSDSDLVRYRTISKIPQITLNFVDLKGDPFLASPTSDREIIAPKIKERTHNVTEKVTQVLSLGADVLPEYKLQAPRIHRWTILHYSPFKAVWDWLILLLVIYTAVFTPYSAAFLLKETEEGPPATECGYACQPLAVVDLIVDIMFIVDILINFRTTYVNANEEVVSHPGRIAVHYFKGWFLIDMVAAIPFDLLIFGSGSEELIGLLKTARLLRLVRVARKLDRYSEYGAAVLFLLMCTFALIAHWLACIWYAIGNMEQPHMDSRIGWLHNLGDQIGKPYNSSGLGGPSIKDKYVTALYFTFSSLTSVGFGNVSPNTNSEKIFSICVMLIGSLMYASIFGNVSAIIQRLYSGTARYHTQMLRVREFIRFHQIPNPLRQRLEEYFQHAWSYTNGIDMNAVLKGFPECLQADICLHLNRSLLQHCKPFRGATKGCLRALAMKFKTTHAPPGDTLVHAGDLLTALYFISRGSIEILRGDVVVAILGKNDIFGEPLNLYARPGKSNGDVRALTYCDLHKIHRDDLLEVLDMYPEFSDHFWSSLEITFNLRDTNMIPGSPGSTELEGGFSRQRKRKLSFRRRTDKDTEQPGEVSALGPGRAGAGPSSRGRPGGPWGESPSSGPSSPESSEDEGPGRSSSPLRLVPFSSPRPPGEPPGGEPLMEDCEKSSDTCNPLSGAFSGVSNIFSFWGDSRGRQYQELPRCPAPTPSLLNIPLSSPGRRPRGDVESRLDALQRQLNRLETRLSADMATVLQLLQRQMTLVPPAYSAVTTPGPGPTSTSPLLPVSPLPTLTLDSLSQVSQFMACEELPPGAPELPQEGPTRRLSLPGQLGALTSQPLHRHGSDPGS

TGF-beta receptor type-1 [3] = biological target: T2, TGF-beta receptor type-1 (Homo sapiens, UniProt P36897); test: Inhibition of TGFbetaR1 (unknown origin)
T2 sequence (P36897 whole entry): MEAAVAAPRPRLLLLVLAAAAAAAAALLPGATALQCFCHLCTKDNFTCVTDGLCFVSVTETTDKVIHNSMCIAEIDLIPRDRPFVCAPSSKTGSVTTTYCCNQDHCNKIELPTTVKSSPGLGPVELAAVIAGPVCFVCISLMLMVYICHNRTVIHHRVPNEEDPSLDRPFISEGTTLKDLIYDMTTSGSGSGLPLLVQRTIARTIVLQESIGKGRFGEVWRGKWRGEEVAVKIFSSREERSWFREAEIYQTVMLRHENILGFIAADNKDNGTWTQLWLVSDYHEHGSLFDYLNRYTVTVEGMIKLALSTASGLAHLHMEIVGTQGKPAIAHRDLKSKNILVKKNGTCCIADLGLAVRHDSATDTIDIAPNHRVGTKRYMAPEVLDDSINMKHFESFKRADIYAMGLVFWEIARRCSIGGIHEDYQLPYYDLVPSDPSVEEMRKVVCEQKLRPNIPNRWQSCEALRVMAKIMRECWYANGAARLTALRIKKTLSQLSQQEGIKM

TGF-beta receptor type-1 [4] = biological target: T2, TGF-beta receptor type-1; test: Inhibition of ALK5 (unknown origin) incubated for 2 hrs in presence of ATP by ADP-Glo reagent based luminescence plate reader analysis
Panc02 [5] = test: cells; settings: Mus musculus, Panc02, 72 h
PANC-1 [6] = test: cells; settings: Homo sapiens, PANC-1, 72 h
4T1 = test: cells; settings: Mus musculus, 4T1, 72 h
MDA-MB-231 = test: cells; settings: Homo sapiens, MDA-MB-231, 72 h
HepG2 = test: cells; settings: Homo sapiens, HepG2, 72 h
U-251 = test: cells; settings: Homo sapiens, U-251, 72 h
Kasumi 1 = test: cells; settings: Homo sapiens, Kasumi 1, 72 h
MV4-11 = test: cells; settings: Homo sapiens, MV4-11, 72 h
in vitro [7] = settings: human, MCF-10A cells
in vitro [8] = settings: human, BEAS-2B cells
in vitro [9] = settings: human, HEK293T cells
in vitro [10] = settings: human, L02 cells
Panc02 [11] = test: Antitumor activity against mouse Panc02 cells implanted in C57BL/6J mouse model assessed as tumor growth inhibition at 10 mg/kg, ip administered every other day for 24 days relative to control; type: functional; settings: Panc02, 576 h, time 24 day, read-out: TGI
PANC-1 [12] = test: Antitumor activity against human PANC-1 xenografted in […] mouse model assessed as tumor growth inhibition at 10 mg/kg, ip administered every other day for 24 days relative to control; type: functional; settings: PANC-1, 576 h, time 24 day, read-out: TGI

Structure (SMILES)	pEC50 (TGF-beta receptor type-1 [1])	other results
CC(=O)N1CCC(CCn2nc(-c3ccc4c(c3)OCO4)c3c(N)ncnc32)CC1	< 6.00	–
Nc1ncnc2c1c(-c1ccc3[nH]ccc3c1)nn2CCC1CCNCC1	< 6.00	–
CC(C)S(=O)(=O)N1CCC(CCn2nc(-c3ccc4[nH]ccc4c3)c3c(N)ncnc32)CC1	6.88	–
N#Cc1ccc(S(=O)(=O)N2CCC(CCn3nc(-c4ccc5[nH]ccc5c4)c4c(N)ncnc43)CC2)cc1	< 6.00	–
CCS(=O)(=O)N1CCC(CCn2nc(-c3ccc4[nH]ccc4c3)c3c(N)ncnc32)CC1	7.04	–
CCCCS(=O)(=O)N1CCC(CCn2nc(-c3ccc4[nH]ccc4c3)c3c(N)ncnc32)CC1	6.75	–
Nc1ncnc2c1c(-c1ccc3[nH]ccc3c1)nn2CCC1CCN(S(=O)(=O)c2cccnc2)CC1	< 6.00	–
CC(C)(C)OC(=O)N1CCC(CCn2nc(-c3ccc4[nH]ccc4c3)c3c(N)ncnc32)CC1	6.36	–
COc1ccc(S(=O)(=O)N2CCC(CCn3nc(-c4ccc5[nH]ccc5c4)c4c(N)ncnc43)CC2)c(OC)c1	< 6.00	–
CC(C)(C)OC(=O)N1CCN(CCn2nc(-c3ccc4[nH]ccc4c3)c3c(N)ncnc32)CC1	6.31	–
Nc1ncnc2c1c(-c1ccc3[nH]ccc3c1)nn2CCC1CCN(S(=O)(=O)c2cc(Cl)ccc2Cl)CC1	< 6.00	–
CC(C)(C)c1ccc(S(=O)(=O)N2CCC(CCn3nc(-c4ccc5[nH]ccc5c4)c4c(N)ncnc43)CC2)cc1	< 6.00	–
CC(=O)N1CCC(CCn2nc(-c3ccc4[nH]c(C)cc4c3)c3c(N)ncnc32)CC1	6.98	–
CC(=O)Nc1cccc(-c2nn(CCC3CCN(C(C)=O)CC3)c3ncnc(N)c23)c1	< 6.00	–
Nc1ncnc2c1c(-c1ccc3[nH]ccc3c1)nn2-c1ccc2cc[nH]c2c1	6.28	–
CC(C)(C)C(=O)N1CCC(CCn2nc(-c3ccc4[nH]ccc4c3)c3c(N)ncnc32)CC1	6.86	–
Nc1ncnc2c1c(-c1ccc3[nH]ccc3c1)nn2CCC1CCN(S(=O)(=O)c2ccccc2F)CC1	6.47	–
Cc1cccc(-c2nc(C34CCC(C(N)=O)(CC3)CC4)[nH]c2-c2ccc3c(c2)OCO3)n1	–	pIC50 (TGF-beta receptor type-1 [3]): 7.33
Nc1ncnc2c1c(-c1ccc3[nH]ccc3c1)nn2CCC1CCN(S(=O)(=O)c2ccc3ccccc3c2)CC1	6.01	–

Structure (SMILES)	pEC50 (TGF-beta receptor type-1 [1])	other results
C#CCCCC(=O)N1CCC(CCn2nc(-c3ccc4[nH]ccc4c3)c3c(N)ncnc32)CC1	6.33	–
CC(C)(C)OC(=O)N1CCC(Cn2nc(-c3ccc4[nH]ccc4c3)c3c(N)ncnc32)C1 (centres undefined)	6.44	pIC50 (TGF-beta receptor type-1 [4]): 6.81
Cc1ccc(S(=O)(=O)N2CCC(CCn3nc(-c4ccc5[nH]ccc5c4)c4c(N)ncnc43)CC2)cc1	6.46	–
Nc1ncnc2c1c(-c1ccc3[nH]ccc3c1)nn2CCC1CCN(S(=O)(=O)c2cccc(Cl)c2Cl)CC1	6.07	–
Nc1ncnc2c1c(-c1ccc3[nH]ccc3c1)nn2CCC1CCN(S(=O)(=O)C2CC2)CC1	6.98	–
CC(=O)N1CCC(CCn2nc(-c3ccc4ncsc4c3)c3c(N)ncnc32)CC1	6.89	–
CC(=O)c1nn(CCC2CCN(C(C)=O)CC2)c2ncnc(N)c12	6.31	–
Nc1ncnc2c1c(-c1ccc3[nH]ccc3c1)nn2CCC1CCN(S(=O)(=O)c2cc(F)cc(F)c2)CC1	< 6.00	–
COc1ccc(S(=O)(=O)N2CCC(CCn3nc(-c4ccc5[nH]ccc5c4)c4c(N)ncnc43)CC2)cc1	6.88	–
COc1ccccc1C(=O)N1CCC(CCn2nc(-c3ccc4[nH]ccc4c3)c3c(N)ncnc32)CC1	6.18	–
Nc1ncnc2c1c(-c1ccc3[nH]ccc3c1)nn2CCC1CCN(S(=O)(=O)c2cccc(Cl)c2)CC1	5.88	–
CC(=O)N1CCC(CCn2nc(-c3cc4cc[nH]c4cc3C)c3c(N)ncnc32)CC1	6.39	–
Nc1ncnc2c1c(-c1ccc3[nH]ccc3c1)nn2CCC1CCN(C(=O)OCc2ccccc2)CC1	< 6.00	–
CC(=O)N1CCC(CCn2nc(-c3ccc4cc[nH]c4c3)c3c(N)ncnc32)CC1	< 6.00	–
CC(C)(C)OC(=O)N1CC(Cn2nc(-c3ccc4[nH]ccc4c3)c3c(N)ncnc32)C1	6.13	–
CC(=O)N1CCC(CCn2nc(-c3coc4ccccc34)c3c(N)ncnc32)CC1	6.17	–
Nc1ncnc2c1c(-c1ccc3[nH]ccc3c1)nn2CCC1CCN(S(=O)(=O)c2ccccc2Cl)CC1	6.07	–
Cc1cccc(-c2nn3c(c2-c2ccnc4ccc(C(N)=O)cc24)CCC3)n1 [GALUNISERTIB]	–	CC50 (Panc02 [5]): > 20000 nM; CC50 (PANC-1 [6]): > 20000 nM; CC50 (4T1): > 20000 nM; CC50 (MDA-MB-231): > 20000 nM; CC50 (HepG2): 5460 nM; CC50 (U-251): 17000 nM; CC50 (Kasumi 1): 3120 nM; CC50 (MV4-11): > 20000 nM; CC50 at 72 h (in vitro [7]): 19900 nM; CC50 at 72 h (in vitro [8]): 13000 nM; CC50 at 72 h (in vitro [9]): > 20000 nM; CC50 at 72 h (in vitro [10]): 17400 nM
Nc1ccn([C@@H]2O[C@H](CO)[C@@H](O)C2(F)F)c(=O)n1 [GEMCITABINE]	–	inhibition in vivo at 10 mg/kg (Panc02 [11]): 92.1%; inhibition in vivo at 10 mg/kg (PANC-1 [12]): 82.2%

More lines, main results first:

pEC50 (TGF-beta receptor type-1 [1])	Structure (SMILES)	other results
6.22	Nc1ncnc2c1c(-c1ccc3[nH]ccc3c1)nn2CCC1CCN(S(=O)(=O)c2cccs2)CC1	–
6.16	CC(C)(C)OC(=O)N1CCCC(Cn2nc(-c3ccc4[nH]ccc4c3)c3c(N)ncnc32)C1 (centres undefined)	–
< 6.00	CC(=O)N1CCC(CCn2nc(-c3ccc4nccnc4c3)c3c(N)ncnc32)CC1	–
6.43	CC(C)(C)OC(=O)N1CCC(Cn2nc(-c3ccc4[nH]ccc4c3)c3c(N)ncnc32)CC1	–
6.53	CC(=O)N1CCC(CCn2nc(-c3ccc4[nH]ncc4c3)c3c(N)ncnc32)CC1	–
7.82	CC(=O)N1CCC(CCn2nc(-c3ccc4[nH]cc(C)c4c3)c3c(N)ncnc32)CC1	pIC50 [2]: 5.01
< 6.00	CC(=O)N1CCC(CCn2nc(-c3ccc4ncccc4c3)c3c(N)ncnc32)CC1	–
6.55	CC(=O)N1CCC(CCn2nc(-c3ccc4c(ccn4C)c3)c3c(N)ncnc32)CC1	–
7.53	CC(=O)N1CCC(CCn2nc(-c3ccc4[nH]ccc4c3)c3c(N)ncnc32)CC1	pIC50 [2]: 4.93
< 6.00	Nc1ncnc2c1c(-c1ccc3[nH]ccc3c1)nn2CCC1CCN(S(=O)(=O)c2ccc(Cl)cc2Cl)CC1	–
7.34	CCCS(=O)(=O)N1CCC(CCn2nc(-c3ccc4[nH]ccc4c3)c3c(N)ncnc32)CC1	–
6.00	CC(C)(C)OC(=O)N1CCC(CCCn2nc(-c3ccc4[nH]ccc4c3)c3c(N)ncnc32)CC1	–
6.52	CC(=O)N1CCC(CCn2nc(-c3ccc(N)cc3C)c3c(N)ncnc32)CC1	–
6.52	Nc1ncnc2c1c(-c1ccc3[nH]ccc3c1)nn2CCC1CCN(S(=O)(=O)c2ccc(C(F)(F)F)cc2)CC1	–
6.56	Nc1ncnc2c1c(-c1ccc3[nH]ccc3c1)nn2CCC1CCN(C(=O)c2ccccc2)CC1	–
6.37	COc1cc(F)cc(-c2nn(CCC3CCN(C(C)=O)CC3)c3ncnc(N)c23)c1	–
